From paper PMC8162404, “Proteomimetic surface fragments distinguish targets by function” (Chemical Science, 2020) come the findings set out here.

Assay [1] addresses T1, CaM (Bos taurus, UniProt P62157).
T1 construct: made in house; host or cells: E. coli BL21 (DE3)
Put plainly: Pull-down assay with immobilized protein and LSM libraries. Particulars: H14 library; 1:2 stoichiometry assumed; read-out: Surface mapping KD (apparent). In kind it is binding, bovine. In short, it runs like this:
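His-tagged protein immobilized on Co-NTA resin, equilibrated 30 min at room temperature with LSM sublibraries (64 members, […]), equimolar protein to total probe. CaM buffer: 20 mM HEPES pH 7.4, 150 mM NaCl, 5 mM CaCl2. Bound fractions from HPLC-MS loss of unbound probe versus protein-free resin control; Kd derived.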

Assay [2] addresses T2, S100B (Homo sapiens, UniProt P04271).
T2 construct: made in house; host or cells: Escherichia coli BL21(DE3)
T2 sequence (P04271 1-92): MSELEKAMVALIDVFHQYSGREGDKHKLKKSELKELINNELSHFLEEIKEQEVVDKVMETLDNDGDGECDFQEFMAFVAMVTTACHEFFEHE
Put plainly: Competition pull-down with native ligand RSK1 (689–735). Format: binding. The following applies: H14 library; competitor peptide 200 µM; read-out: Surface mapping KD (apparent), competition.

Assay [3] concerns the target T3, Gal-1 (Homo sapiens, UniProt P09382).
T3 construct: made in house; host or cells: E. coli BL21(DE3)
Put plainly: Pull-down assay with immobilized protein and LSM libraries. In kind it is binding. The following applies: H14 library; 1:1 binding assumed; read-out: Surface mapping KD (apparent). The procedure, abridged:
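His-tagged protein immobilized on Co-NTA resin (64 µM) in 20 mM HEPES pH 7.4, 150 mM NaCl, equilibrated 30 min at room temperature with foldamer LSM sublibraries at equimolar total concentration. Unbound fractions quantified by HPLC-MS versus protein-free resin control; apparent KD assumes 1:1 binding.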

Assay [4] deals with T4, S100A4 (Homo sapiens, UniProt P26447).
T4 construct: made in house; host or cells: Escherichia coli BL21(DE3)
Described as above. In kind it is binding. Particulars: H14 library; 1:1 binding assumed; read-out: Surface mapping KD (apparent). In short, it runs like this:
(§1)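 Buffers were HEPES pH 7.4 with 150 mM NaCl, plus 1 mM TCEP and 1 mM CaCl2 (50 mM HEPES) for S100A4 and S100B, 1 mM TCEP for Gal-1, and no additive for RecQ-WH. Immobilized protein at 64 µM was equilibrated 30 min with the LSM sublibrary, and unbound probes were measured by LC-MS.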

Assay [5] concerns the target T2, S100B. The description is as above. Format: binding. The following applies: H14 library; 1:1 binding assumed; read-out: Surface mapping KD (apparent). The procedure, abridged:
as §1

In assay [6] the target is T1, CaM. Put plainly: Competition pull-down with native ligand TRPV1-Ct15. In kind it is binding, bovine. Particulars: H14 library; competitor peptide 200 µM; read-out: Surface mapping KD (apparent), competition.
The target in assay [7] is T3, Gal-1. Put plainly: Competition pull-down with lactose. In kind it is binding. Particulars: H14 library; lactose 10 mM; read-out: Surface mapping KD (apparent), competition. In short, it runs like this:
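His6-tagged proteins immobilized on Co-NTA resin at 64 µM final with 64-member LSM foldamer sublibraries (1 M each, as printed) in pH 7.4 HEPES/NaCl buffers (Ca2+/TCEP per target), 30 min RT; competitor peptides 200 µM final, lactose 10 mM for Gal-1. Bound fractions from LC-MS loss vs protein-free resin; KD assuming 1:1 binding.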

Molecules are shown by their SMILES.

T4 sequence (P26447 whole entry): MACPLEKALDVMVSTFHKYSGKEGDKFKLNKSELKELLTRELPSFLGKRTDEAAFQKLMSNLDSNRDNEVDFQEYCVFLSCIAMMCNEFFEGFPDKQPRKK
T3 sequence (P09382 whole entry): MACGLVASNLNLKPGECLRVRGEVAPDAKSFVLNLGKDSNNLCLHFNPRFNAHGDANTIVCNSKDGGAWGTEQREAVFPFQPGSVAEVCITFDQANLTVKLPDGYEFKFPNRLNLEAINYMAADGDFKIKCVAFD

`CC[C@H](C)[C@@H](CC(=O)N[C@H]1CCCC[C@@H]1C(N)=O)NC(=O)[C@H]1CCCC[C@@H]1NC(=O)[C@H]1CCCC[C@@H]1NC(=O)C[C@H](C)NC(=O)[C@H]1CCCC[C@@H]1N` [H14 AI]: the Kd amounted to 13 µM in assay [1]; 238 µM in assay [2]; 248 µM in assay [3]; 7 µM in assay [4]; 108 µM in assay [5].
For the compound `CSCC[C@@H](CC(=O)N[C@H]1CCCC[C@@H]1C(N)=O)NC(=O)[C@H]1CCCC[C@@H]1NC(=O)[C@H]1CCCC[C@@H]1NC(=O)C[C@H](CCC(=O)O)NC(=O)[C@H]1CCCC[C@@H]1N` [H14 EM], in assay [2], the Kd stood at 141 µM.
Turning to `NC(=O)CC[C@@H](CC(=O)N[C@H]1CCCC[C@@H]1C(N)=O)NC(=O)[C@H]1CCCC[C@@H]1NC(=O)[C@H]1CCCC[C@@H]1NC(=O)C[C@H](Cc1ccccc1)NC(=O)[C@H]1CCCC[C@@H]1N` [H14 FQ], the Kd in assay [1] stood at 49 µM; in assay [2] it was 494 µM; in assay [4] it was 377 µM; in assay [5], 433 µM.
With `CC[C@H](C)[C@@H](CC(=O)N[C@H]1CCCC[C@@H]1C(=O)N[C@H]1CCCC[C@@H]1C(=O)N[C@@H](CCCCN)CC(=O)N[C@H]1CCCC[C@@H]1C(N)=O)NC(=O)[C@H]1CCCC[C@@H]1N` [H14 IK], the Kd in assay [1] worked out at 31 µM; in assay [2], 216 µM; in assay [4] it was 307 µM; in assay [5], 84 µM.
As for `CC[C@H](C)[C@@H](CC(=O)N[C@H]1CCCC[C@@H]1C(=O)N[C@H]1CCCC[C@@H]1C(=O)N[C@@H](CC(N)=O)CC(=O)N[C@H]1CCCC[C@@H]1C(N)=O)NC(=O)[C@H]1CCCC[C@@H]1N` [H14 IN], the Kd in assay [1] is 281 µM; in assay [2] it was 325 µM; in assay [4], 321 µM.
As to `CC[C@H](C)[C@@H](CC(=O)N[C@H]1CCCC[C@@H]1C(=O)N[C@H]1CCCC[C@@H]1C(=O)N[C@@H](CCC(N)=O)CC(=O)N[C@H]1CCCC[C@@H]1C(N)=O)NC(=O)[C@H]1CCCC[C@@H]1N` [H14 IQ], the Kd in assay [1] turned out to be 321 µM; in assay [2] it was 387 µM; in assay [4], 319 µM; in assay [5] it was 497 µM.
For `CC[C@H](C)[C@@H](CC(=O)N[C@H]1CCCC[C@@H]1C(=O)N[C@H]1CCCC[C@@H]1C(=O)N[C@@H](CCCNC(=N)N)CC(=O)N[C@H]1CCCC[C@@H]1C(N)=O)NC(=O)[C@H]1CCCC[C@@H]1N` [H14 IR], the Kd in assay [1] came out at 20 µM; in assay [2], 174 µM; in assay [4] it was 103 µM; in assay [5], 37 µM.
On the same counts, the results for `CC(C)C[C@@H](CC(=O)N[C@H]1CCCC[C@@H]1C(=O)N[C@H]1CCCC[C@@H]1C(=O)N[C@@H](CCCCN)CC(=O)N[C@H]1CCCC[C@@H]1C(N)=O)NC(=O)[C@H]1CCCC[C@@H]1N` [H14 LK] are 27 µM, 316 µM, 312 µM and 82 µM.
Take `NCCCC[C@@H](CC(=O)N[C@H]1CCCC[C@@H]1C(N)=O)NC(=O)[C@H]1CCCC[C@@H]1NC(=O)[C@H]1CCCC[C@@H]1NC(=O)C[C@H](CCC(N)=O)NC(=O)[C@H]1CCCC[C@@H]1N` [H14 QK]: the Kd was determined as 96 µM in assay [1]; 208 µM in assay [6]; 146 µM in assay [7]; 158 µM in assay [3]; 382 µM in assay [4]; 81 µM in assay [5].
Regarding `N=C(N)NCCC[C@@H](CC(=O)N[C@H]1CCCC[C@@H]1C(N)=O)NC(=O)[C@H]1CCCC[C@@H]1NC(=O)[C@H]1CCCC[C@@H]1NC(=O)C[C@H](CCC(N)=O)NC(=O)[C@H]1CCCC[C@@H]1N` [H14 QR], the Kd was found to be 43 µM in assay [1]; 291 µM in assay [6]; 272 µM in assay [7]; 71 µM in assay [3]; 344 µM in assay [4]; 107 µM in assay [5].
Turning to `CC(C)[C@@H](CC(=O)N[C@H]1CCCC[C@@H]1C(N)=O)NC(=O)[C@H]1CCCC[C@@H]1NC(=O)[C@H]1CCCC[C@@H]1NC(=O)C[C@H](CCCNC(=N)N)NC(=O)[C@H]1CCCC[C@@H]1N` [H14 RV], the Kd in assay [1] amounted to 26 µM; in assay [6] it was 219 µM; in assay [7], 418 µM; in assay [4], 72 µM; in assay [5] it was 63 µM.
For `CC[C@H](C)[C@@H](CC(=O)N[C@H]1CCCC[C@@H]1C(N)=O)NC(=O)[C@H]1CCCC[C@@H]1NC(=O)[C@H]1CCCC[C@@H]1NC(=O)C[C@H](CO)NC(=O)[C@H]1CCCC[C@@H]1N` [H14 SI], the Kd in assay [1] amounted to 75 µM; in assay [6], 471 µM; in assay [7], 478 µM; in assay [3], 336 µM; in assay [4] it was 19 µM; in assay [5] it was 380 µM.
For the compound `CC(C)C[C@@H](CC(=O)N[C@H]1CCCC[C@@H]1C(N)=O)NC(=O)[C@H]1CCCC[C@@H]1NC(=O)[C@H]1CCCC[C@@H]1NC(=O)C[C@H](CO)NC(=O)[C@H]1CCCC[C@@H]1N` [H14 SL], the Kd was 64 µM in assay [1]; 436 µM in assay [6]; 325 µM in assay [7]; 251 µM in assay [3]; 19 µM in assay [4]; 380 µM in assay [5].
`N=C(N)NCCC[C@@H](CC(=O)N[C@H]1CCCC[C@@H]1C(N)=O)NC(=O)[C@H]1CCCC[C@@H]1NC(=O)[C@H]1CCCC[C@@H]1NC(=O)C[C@H](CO)NC(=O)[C@H]1CCCC[C@@H]1N` [H14 SR]: the Kd in assay [1] was 75 µM; in assay [6], 174 µM; in assay [7], 349 µM; in assay [3] it was 156 µM; in assay [4], 188 µM; in assay [5] it was 76 µM.
For `C[C@@H](O)[C@@H](CC(=O)N[C@H]1CCCC[C@@H]1C(=O)N[C@H]1CCCC[C@@H]1C(=O)N[C@@H](CCCNC(=N)N)CC(=O)N[C@H]1CCCC[C@@H]1C(N)=O)NC(=O)[C@H]1CCCC[C@@H]1N` [H14 TR], the Kd in assay [1] came to 75 µM; in assay [6], 338 µM; in assay [7], 432 µM; in assay [3] it was 372 µM; in assay [4] it was 407 µM; in assay [5], 94 µM.
For `CC(C)[C@@H](CC(=O)N[C@H]1CCCC[C@@H]1C(=O)N[C@H]1CCCC[C@@H]1C(=O)N[C@@H](CCC(=O)O)CC(=O)N[C@H]1CCCC[C@@H]1C(N)=O)NC(=O)[C@H]1CCCC[C@@H]1N` [H14 VE], the Kd in assay [2] came to 369 µM; in assay [3], 313 µM.
Consider `CC(C)[C@@H](CC(=O)N[C@H]1CCCC[C@@H]1C(=O)N[C@H]1CCCC[C@@H]1C(=O)N[C@@H](CCCCN)CC(=O)N[C@H]1CCCC[C@@H]1C(N)=O)NC(=O)[C@H]1CCCC[C@@H]1N` [H14 VK], for which the Kd was 67 µM in assay [1], 390 µM in assay [2], 296 µM in assay [3] and 138 µM in assay [5].
Turning to `CSCC[C@@H](CC(=O)N[C@H]1CCCC[C@@H]1C(N)=O)NC(=O)[C@H]1CCCC[C@@H]1NC(=O)[C@H]1CCCC[C@@H]1NC(=O)C[C@@H](NC(=O)[C@H]1CCCC[C@@H]1N)C(C)C` [H14 VM], the Kd turned out to be 26 µM in assay [1], 229 µM in assay [2], 5 µM in assay [4] and 93 µM in assay [5].
Regarding `CC(C)[C@@H](CC(=O)N[C@H]1CCCC[C@@H]1C(=O)N[C@H]1CCCC[C@@H]1C(=O)N[C@@H](CC(N)=O)CC(=O)N[C@H]1CCCC[C@@H]1C(N)=O)NC(=O)[C@H]1CCCC[C@@H]1N` [H14 VN], the Kd in assay [2] is 271 µM; in assay [3] it was 302 µM.
In the case of `CC(C)[C@@H](CC(=O)N[C@H]1CCCC[C@@H]1C(=O)N[C@H]1CCCC[C@@H]1C(=O)N[C@@H](CCC(N)=O)CC(=O)N[C@H]1CCCC[C@@H]1C(N)=O)NC(=O)[C@H]1CCCC[C@@H]1N` [H14 VQ], the results for the Kd in assay [2] and in assay [3] were 339 µM and 161 µM, respectively.
Take `CC(C)[C@@H](CC(=O)N[C@H]1CCCC[C@@H]1C(=O)N[C@H]1CCCC[C@@H]1C(=O)N[C@@H](CO)CC(=O)N[C@H]1CCCC[C@@H]1C(N)=O)NC(=O)[C@H]1CCCC[C@@H]1N` [H14 VS]: the Kd is 264 µM in assay [1], 460 µM in assay [2], 190 µM in assay [3] and 263 µM in assay [4].
As to `NC(=O)[C@H]1CCCC[C@@H]1NC(=O)C[C@H](CO)NC(=O)[C@H]1CCCC[C@@H]1NC(=O)[C@H]1CCCC[C@@H]1NC(=O)C[C@H](Cc1ccc(O)cc1)NC(=O)[C@H]1CCCC[C@@H]1N` [H14 YS], the Kd is 67 µM in assay [1], 399 µM in assay [2], 336 µM in assay [3] and 346 µM in assay [4].
